Values quoted from earlier work as cited in patent US20150174247A1, “ORAL PHARMACEUTICAL PREPARATION OF ARIPIPRAZOLE” (MARUISHI PHARMACEUTICAL CO., LTD., priority 2012, published 2015).

Which results are given for O=C1CCc2ccc(OCCCCN3CCN(c4cccc(Cl)c4Cl)CC3)cc2N1 [aripiprazole, 7-{4-[4-(2,3-dichlorophenyl)-1-piperazinyl]-butoxy}-3,4-dihydro-2(1H)-quinolinone]?
solubility in acidic range (acidic range (pH 4.5 or less)): highly soluble; solubility in neutral or higher pH range (neutral (pH 5) or higher pH range): less soluble
